Common to all, as to assay type: in vitro ADME
One series deals with T1, CYP1A1 (Homo sapiens, UniProt P04798).
T1 construct: purchased BD Gentest (Woburn, MA); host or cells: baculovirus-infected insect cells
The series can be described thus: Oxidation by recombinant human CYP1A1. As to conditions: 100 pmol/mL, 5 μmol/L, 30 min, NADPH. The source says: (§1) Recombinant human CYPs (Supersomes™; BD Gentes, Woburn, MA: CYP1A1, CYP1A2, CYP2A6, CYP2B6, CYP2C8, CYP2C9, CYP2C18, CYP2C19, CYP2D6, CYP2E1, CYP3A4 and CYP3A5), FMOs (Supersomes™: FMO1, FMO3, FMO5), MAOs (Supersomes™: MAO-A and MAO-B), and UGTs (Supersomes™: UGT1A1, UGT1A3, UGT1A4, UGT1A6, UGT1A7, UGT1A8, UGT1A9, UGT1A10, UGT2B4, UGT2B7, UGT2B15, and UGT2B17) expressed in baculovirus-infected insect cells and control microsomes from insect cells infected with wild-type baculovirus were all obtained from BD Gentest (Woburn, MA). […]
(§2) In human liver microsomes and recombinant isoforms, the percentage of metabolism was determined on the basis of unchanged drug disappearance, using the following equation [drawing 1] where UDt = 30 min represents the unchanged drug peak area after a 30-min incubation period and UDt = 0, the unchanged drug peak area at t = 0. […]
(§3) Figure 5 Contribution of individual CYPs, FMOs and MAOs to the oxidation of dronedarone and its metabolites. […] Unchanged drugs were quantified by LC/MS-MS relative to the synthetic references as described in Materials and Methods. Data are expressed as the percentage of oxidation.

Series [1] can be described thus: Glucuronidation by human hepatic microsomal fractions with UDPGA. The conditions noted are these: 5 μmol/L; for Metabolism in the presence of UDPGA: UDPGA as cofactor. The procedure:
Human hepatic microsomal fractions were obtained from a large pool of human liver (150 individuals) prepared by BD Gentest-Biosciences (BD UltraPool™ HLM 150 – catalogue reference, 452118 Easy Count Box, Woburn, MA). This pooled human liver microsomal batch was also validated internally by the use of FDA-recommended CYP probes (FDA guidance for Industry, draft guidance February 2012).
For glucuronidation pathways, the assay mixture was composed of human liver microsomes (2 mg·mL^−1) or microsomes of baculovirus-infected cells expressing human UGTs (1 mg·mL^−1), uridine 5′-diphosphoglucuronic acid (UDPGA) (3 mmol/L), 100 mmol/L Tris HCl (pH 7.4) containing 5 mmol/L MgCl2 and 5 μmol/L of the investigated compound dissolved in DMSO in a final volume of 500 μL. The final concentration of DMSO in the reaction mixture was less than 1% (v/v). Initial rate conditions with respect to time and protein concentration for both the disappearance of unchanged drug and the formation of respective metabolites were established in preliminary studies. The microsomal mixture was first incubated for 10 min at 4°C in the presence of alamethicin (0.125 mg·mL^−1), then the reaction was initiated by addition of UDPGA (30 mmol/L aqueous solution) to achieve a final concentration of 3 mmol/L for UGT-dependent reactions, incubated at 37°C and stopped after 0–30 min by addition of one volume of ice-cold acetonitrile.
After removal of the proteins by centrifugation at 10,000 rpm for 10 min, a portion of the supernatant was analyzed by LC-UV-MS.
Since a N-glucuronidation process could not be excluded, and because some of the metabolites bear either, a free hydroxyl group or carboxylic acid function, glucuronidation of dronedarone and its potential metabolites was also investigated in human hepatic microsomal fractions in the presence of UDPGA as cofactor. Only propanoic acid-dronedarone and phenol-dronedarone were metabolized in the presence of UDPGA.
Figure 6 Quantitative glucuronidation of propanoic acid-dronedarone (A) and phenol-dronedarone (B) during a 30-min incubation of human hepatic microsomal fractions (1 mg/mL final concentration) with 5 μmol/L unchanged drug in the presence of UDPGA. The kinetics of propanoic acid-dronedarone disappearance (○-○), phenol-dronedarone disappearance and their respective glucuronide formation (●-●, dashed line) were recorded over 30 min. Propanoic acid-dronedarone and phenol-dronedarone were quantified by LC/MS-MS relative to the synthetic references, while the peak area of their respective identified glucuronide was expressed in arbitrary units (×10^3), as described in Materials and Methods.

Series [2] deals with CYP1A1, -1A2, -2A6, -2B6, -C8, -2C9, -2C18, -2C19, -2D6, -2E1, -3A4, and -3A5. The series is described as follows: Oxidation by the panel of recombinant human CYP isoforms. As to conditions: 100 pmol/mL, 5 μmol/L, 30 min, NADPH; for Oxidation by the other CYP isoforms of the panel: isoforms other than those named for the drug. The text has this:
(§4) Recombinant human CYPs (Supersomes™; BD Gentes, Woburn, MA: CYP1A1, CYP1A2, CYP2A6, CYP2B6, CYP2C8, CYP2C9, CYP2C18, CYP2C19, CYP2D6, CYP2E1, CYP3A4 and CYP3A5), FMOs (Supersomes™: FMO1, FMO3, FMO5), MAOs (Supersomes™: MAO-A and MAO-B), and UGTs (Supersomes™: UGT1A1, UGT1A3, UGT1A4, UGT1A6, UGT1A7, UGT1A8, UGT1A9, UGT1A10, UGT2B4, UGT2B7, UGT2B15, and UGT2B17) expressed in baculovirus-infected insect cells and control microsomes from insect cells infected with wild-type baculovirus were all obtained from BD Gentest (Woburn, MA).
(§5) For oxidative pathways, the assay mixture was composed of human liver microsomes (1 mg·m·L^−1) or microsomes of baculovirus-infected cells expressing human enzymes (100 pmol·mL^−1 for CYPs and 1 mg·mL^−1 for FMOs and MAOs), nicotinamide adenine dinucleotide phosphate reduced form (NADPH) (1 mmol/L), 100 mmol/L potassium phosphate (pH 7.4), and 5 μmol/L of the investigated compound dissolved in DMSO in a final volume of 500 μL.
(§6) The final concentration of DMSO in the reaction mixture was less than 1% (v/v). Initial rate conditions with respect to time and protein concentration for both the disappearance of unchanged drug and the formation of respective metabolites were established in preliminary studies. The enzyme reaction was initiated by addition of NADPH (10 mmol/L aqueous solution) to achieve a final concentration of 1 mmol/L for oxidative CYP- and FMO-dependent reactions or by the drug for MAO-dependent reactions, incubated at 37°C and stopped after 0–30 min by addition of one volume of ice-cold acetonitrile.
(§7) In human liver microsomes and recombinant isoforms, the percentage of metabolism was determined on the basis of unchanged drug disappearance, using the following equation [drawing 1] where UDt = 30 min represents the unchanged drug peak area after a 30-min incubation period and UDt = 0, the unchanged drug peak area at t = 0.
(§8) To identify the specific isoforms that are capable of oxidizing dronedarone and its metabolites, assays were performed using c-DNA-expressed isoforms belonging to CYP- (CYP1A1, -1A2, -2A6, -2B6, -C8, -2C9, -2C18, -2C19, -2D6, -2E1, -3A4, and -3A5), FMO- (FMO-1, -3, and -5) and MAO- (MAO-A and MAO-B) families.
Figure 5 Contribution of individual CYPs, FMOs and MAOs to the oxidation of dronedarone and its metabolites. Individual CYPs (100 pmol/mL), FMOs (1 mg/mL) and MAOs (1 mg/mL) were incubated with either dronedarone (A) or its metabolites, N-debutyl-dronedarone (B), propanoic acid-dronedarone (C), and phenol-dronedarone (D), at a concentration of 5 μmol/L, for 30 min at 37°C in the presence of NADPH, except for MAOs where incubations were performed in the absence of cofactor. Unchanged drugs were quantified by LC/MS-MS relative to the synthetic references as described in Materials and Methods. Data are expressed as the percentage of oxidation.

Another series deals with T2, CYP3A5 (Homo sapiens, UniProt P20815).
T2 construct: purchased BD Gentest (Woburn, MA); host or cells: baculovirus-infected insect cells
T2 sequence (P20815 whole entry): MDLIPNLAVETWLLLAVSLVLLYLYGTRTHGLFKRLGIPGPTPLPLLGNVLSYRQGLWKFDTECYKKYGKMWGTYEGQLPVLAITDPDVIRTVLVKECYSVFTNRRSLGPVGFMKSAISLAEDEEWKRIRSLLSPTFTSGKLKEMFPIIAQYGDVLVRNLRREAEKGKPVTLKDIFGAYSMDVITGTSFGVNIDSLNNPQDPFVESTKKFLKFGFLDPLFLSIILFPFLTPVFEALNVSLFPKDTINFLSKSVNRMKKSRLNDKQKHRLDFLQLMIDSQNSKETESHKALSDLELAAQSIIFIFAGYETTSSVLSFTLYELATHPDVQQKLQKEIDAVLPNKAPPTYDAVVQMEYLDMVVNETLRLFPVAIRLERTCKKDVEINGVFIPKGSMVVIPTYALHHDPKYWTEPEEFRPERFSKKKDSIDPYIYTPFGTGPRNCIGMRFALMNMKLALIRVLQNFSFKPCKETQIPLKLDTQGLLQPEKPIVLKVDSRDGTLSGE
The series can be described thus: Oxidation by recombinant human CYP3A5.
Description: as §1, §2, §3

For a further series, the target named is T3, CYP2D6 (Homo sapiens, UniProt P10635).
T3 construct: purchased BD Gentest (Woburn, MA); host or cells: baculovirus-infected insect cells
T3 sequence (P10635 whole entry): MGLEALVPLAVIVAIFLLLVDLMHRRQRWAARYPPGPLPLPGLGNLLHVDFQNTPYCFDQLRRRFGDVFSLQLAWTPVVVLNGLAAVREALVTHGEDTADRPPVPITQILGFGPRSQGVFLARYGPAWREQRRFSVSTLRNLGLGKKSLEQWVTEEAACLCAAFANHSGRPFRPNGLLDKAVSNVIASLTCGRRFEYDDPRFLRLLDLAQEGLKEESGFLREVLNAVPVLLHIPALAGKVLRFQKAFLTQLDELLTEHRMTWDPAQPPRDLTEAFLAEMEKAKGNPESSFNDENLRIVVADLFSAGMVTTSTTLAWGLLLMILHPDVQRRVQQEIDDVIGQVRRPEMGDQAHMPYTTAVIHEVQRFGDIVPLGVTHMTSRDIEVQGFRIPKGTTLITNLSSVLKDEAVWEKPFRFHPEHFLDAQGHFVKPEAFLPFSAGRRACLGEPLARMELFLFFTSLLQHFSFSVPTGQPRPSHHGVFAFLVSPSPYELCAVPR
The series is described as follows: Oxidation by recombinant human CYP2D6. As to conditions: for Percentage of oxidation (unchanged drug disappearance) by CYP2D6: 100 pmol/mL, 5 μmol/L, 30 min, NADPH.
Description: as §4, §5, §6, §7, §8, §3

Setting [3] is: 5 μmol/L dronedarone, end of 30-min incubation.

T1 sequence (P04798 whole entry): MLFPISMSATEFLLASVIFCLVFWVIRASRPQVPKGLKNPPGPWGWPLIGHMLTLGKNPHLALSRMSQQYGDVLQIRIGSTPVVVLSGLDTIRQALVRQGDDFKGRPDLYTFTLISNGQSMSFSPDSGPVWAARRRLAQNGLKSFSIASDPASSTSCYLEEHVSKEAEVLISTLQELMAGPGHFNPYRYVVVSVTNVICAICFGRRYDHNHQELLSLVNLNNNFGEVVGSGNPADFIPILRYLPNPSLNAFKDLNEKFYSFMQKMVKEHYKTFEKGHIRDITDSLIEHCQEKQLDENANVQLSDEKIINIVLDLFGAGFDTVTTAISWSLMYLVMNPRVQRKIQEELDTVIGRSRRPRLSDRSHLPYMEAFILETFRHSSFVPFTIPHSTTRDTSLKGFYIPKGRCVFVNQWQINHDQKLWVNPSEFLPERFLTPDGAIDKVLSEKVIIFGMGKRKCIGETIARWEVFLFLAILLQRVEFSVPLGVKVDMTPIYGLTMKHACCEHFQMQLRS

On to `CCCCc1oc2ccc(NS(C)(=O)=O)cc2c1C(=O)c1ccc(OCCC(=O)O)cc1` [Propanoic acid-dronedarone], for which, at CYP1A1, the “Percentage of oxidation (unchanged drug disappearance) by CYP1A1” value was 59%. In addition, in series [1], the “Metabolism in the presence of UDPGA” value is recorded as “metabolized”. For the same molecule, in series [1] (UDPGA, 30th minute of incubation), the “Unchanged drug remaining, percent of initial concentration” value came out at 70%. Besides, the “Oxidation by the other CYP isoforms of the panel” value (from here on “Oxidation … of the panel”) in series [2] was “Neither other CYPs, nor FMOs and MAOs metabolized propanoic acid-dronedarone to any significant extent”.

As to `CCCCN(CCCC)CCCOc1ccc(C(=O)O)cc1` [C-dealkyl-dronedarone], the “Metabolism by any of the different CYPs” value in series [2] was “not metabolized”.

Take `CCCCNCCCOc1ccc(C(=O)c2c(CCCC)oc3ccc(NS(C)(=O)=O)cc23)cc1` [N-debutyl-dronedarone]: the “Metabolite formed, as percent of initial dronedarone concentration, with CYP3A5” value at CYP3A5 (setting [3]) is reported as 50%. Moreover, the “Percentage of oxidation (unchanged drug disappearance) by CYP2D6” value on CYP2D6 is on record as 55%. In addition, the “Metabolite formed, as percent of initial dronedarone concentration, with CYP2D6” value at CYP2D6 (setting [3]) is listed as “less than 1%”. Also, in series [2], the “Oxidation … of the panel” value is “Neither other CYPs nor FMOs metabolized N-debutyl-dronedarone to any significant extent”.

For the molecule `CCCCc1oc2ccc(NS(C)(=O)=O)cc2c1C(=O)c1ccc(O)cc1` [Phenol-dronedarone], at CYP1A1, the “Percentage of oxidation (unchanged drug disappearance) by CYP1A1” value is 99%. Besides, the “Percentage of oxidation (unchanged drug disappearance) by CYP2D6” value at CYP2D6 is given as 94%. Besides, the “Metabolism in the presence of UDPGA” value in series [1] is recorded as “metabolized”. In addition, in series [1] (UDPGA, in 10 min), the Initial drug metabolized entry was “more than 70%”. In addition, the “Oxidation … of the panel” value in series [2] is “contributed to a very small extent”.

Regarding `CCCCc1oc2ccc(NS(C)(=O)=O)cc2c1C(=O)c1ccc(OCCCN(CCCC)CCCC)cc1.Cl` [Dronedarone, N-(2-Butyl-3-(4-(3-(dibutylamino)propoxy)benzoyl)-5-benzofuranyl)methanesulfonamide, hydrochloride], the “Percentage of oxidation (unchanged drug disappearance) by CYP3A5” value at CYP3A5 (100 pmol/mL, 5 μmol/L, 30 min, NADPH) came out at 90%. On CYP2D6, the “Percentage of oxidation (unchanged drug disappearance) by CYP2D6” value is reported as 50%. The “Oxidation … of the panel” value in series [2] was “less than 15%”.

These data come from article PMC4186413, “Identification of metabolic pathways and enzyme systems involved in the in vitro human hepatic metabolism of dronedarone, a potent new oral antiarrhythmic drug” (Pharmacology Research & Perspectives, 2014).
